In patent US4342775A, “3-(1-Imidazolyl)-derivatives of 2,3-dihydro-4H-1-benzopyran” (Farmitalia Carlo Erba S.p.A., priority 1980, dated 1982):

Assays:
[1] = tested on: Icem: CER (SPF Caw) male rats fed hypercholesterolaemic diet; assay: Experiment No. 1: serum lipids in rats fed hypercholesterolaemic diet; assay type: in vivo, rat; settings: 50 mg/kg/os for 4 days, *** p < 0.01
Protocol: (§1) The activity of the compounds of the invention was evaluated on groups of Icem: CER (SPF Caw) male rats either fed for six days with hypercholesterolaemic diet according to C. E. Day [Schurr P. E., Schultz H. R., Day C. E. (Eds) Atherosclerosis and drug discovery--Plenum Pub. Corp., 217 (1976)] (Experiment No. 1) or fed standard diet Altromin (Experiment No. 2). "Altromin" is a trade mark.
(§2) The compounds were suspended in "Methocel" (methyl cellulose, a 0.5% suspension in water) and administered by stomach tube at the dose of 50 mg/kg for 4 days.
(§3) Groups of animals were treated with the suspending agent only (control groups).
(§4) The total serum cholesterol was determined with the method of Trinder P. J. [J. Clin. Pathol., 22, 246 (1969)].
(§5) The total serum HDL cholesterol was determined according to Demacker P. N. M. [Clin. Chem., 23, 1238, (1977)]. The total β-lipoprotein cholesterol was determined by difference between total serum cholesterol and HDL cholesterol.
Statistical analysis in experiment No. 1 was performed by the Student's test for independent samples or by the Cochran's t test when the variances were not homogeneous at the F ratio test [Bliss C. I.--Statistics in Biology, Vol. 1, page 213--Mc Graw Hill Book Company, New York, 1967; Cochran W. G., Cox G. M.--Experimental designs--J. Wiley e Sons Inc., New York, II Ed. (1968) page 100].
The Table 1 reports the values of serum total cholesterol and total HDL cholesterol and ratio between α and β lipoprotein total cholesterol from animals fed hypercholesterolaemic diet and treated with two compounds of the invention: 3-(1-imidazolyl)-2,3-dihydro-6-chloro-4H-1-benzopyran-4-one: compound A, and 3-(1-imidazolyl)-2,3-dihydro-6-chloro-4H-1-benzopyran-4-ol (trans isomer): compound B, in comparison with the values of the same variables in controls.

[2] = tested on: Icem: CER (SPF Caw) male rats fed standard diet Altromin; assay: Experiment No. 2: serum lipids in rats fed standard diet Altromin; assay type: in vivo, rat; settings: 50 mg/kg/os for 4 days; for Serum HDL total cholesterol, mean ± S.E.: ** p < 0.05; for Serum triglycerides, mean ± S.E. / Total serum cholesterol, mean ± S.E. / α/β lipoprotein total cholesterol, mean: *** p < 0.01
Protocol: as §1, §2, §3, §4
The serum triglycerides were determined with the method of Mendez J. [J. Clin. Chem., 21, 768, (1975)].
as §5
W.--J. Amer. Stat. Ass., 50, 1096 (1955)]. Taking in account the ratio between α and β lipoprotein cholesterol it was necessary to make the variances homogeneous by a transformation of the values (√x).

[3] = tested on: collagen-induced platelet aggregation; assay: in vitro collagen-induced platelet aggregation in platelet rich plasma (method of Born); assay type: cell-based; settings: final 25 mcg/ml; induced by 2 mcg/ml collagen; Guinea pig platelet rich plasma
Protocol: The compounds of the invention are also endowed with blood platelet-antiaggregating activity. This activity was evaluated e.g. "in vitro" on the basis of the ability of the test compounds to inhibit the collagen-induced platelet aggregation in Guinea pig platelet rich plasma according to the method of Born "Born G.V.R.--Nature, […] (1962)].

## O[C@H]1c2cc(Cl)ccc2OC[C@@H]1n1ccnc1 (relative stereo) [Compound B, 3-(1-imidazolyl)-2,3-dihydro-6-chloro-4H-1-benzopyran-4-ol (trans isomer)]
[1]
  Serum HDL total cholesterol, mean ± S.E.: 47.6 ± 2.4 mg/100 ml
  Total serum cholesterol, mean ± S.E.: 184.4 ± 19.7 mg/100 ml
  α/β lipoprotein cholesterol, mean ± S.E.: 0.3664 ± 0.055
[2]
  Serum HDL total cholesterol, mean ± S.E.: 50.3 ± 1.7 mg/100 ml
  Serum triglycerides, mean ± S.E.: 90.6 ± 6.1 mg/100 ml
  Total serum cholesterol, mean ± S.E.: 72.4 ± 2.3 mg/100 ml
  α/β lipoprotein total cholesterol, mean: 1.432

## O=C1c2cc(Cl)ccc2OCC1n1ccnc1 (stereo not drawn) [Compound A, 3-(1-imidazolyl)-2,3-dihydro-6-chloro-4H-1-benzopyran-4-one]
[1]
  Serum HDL total cholesterol, mean ± S.E.: 44.3 ± 1.3 mg/100 ml
  Total serum cholesterol, mean ± S.E.: 133.2 ± 10.1 mg/100 ml
  α/β lipoprotein cholesterol, mean ± S.E.: 0.548 ± 0.052
[2]
  Serum HDL total cholesterol, mean ± S.E.: 52.3 ± 2.5 mg/100 ml
  Serum triglycerides, mean ± S.E.: 77.2 ± 7.0 mg/100 ml
  Total serum cholesterol, mean ± S.E.: 73.4 ± 3.0 mg/100 ml
  α/β lipoprotein total cholesterol, mean: 1.450
[3]
  inhibition of platelet aggregation: inhibit wholly
